Data set [1] has as its system cancerous cells of breast, lung, ovary, colon, prostate, kidney, pancreas. Put plainly: cytotoxic and anticancer activity against cancerous cells. The class given is cell-based. As to conditions: statement in words, no data.
Data set [2] has as its system cell lines expressing the MDR phenotype. Put plainly: overcoming resistance of MDR cell lines. The class given is cell-based. As to conditions: statement in words, no data.

As for `CC(=O)O[C@H]1C(=O)[C@@]2(C)C([C@H](OC(=O)c3ccccc3)[C@]34OC(=O)O[C@H]3[C@H](OC(=O)[C@H](O)[C@H](CC(C)C)NC(=O)OC(C)(C)C)C(C)=C1C4(C)C)[C@]1(OC(C)=O)CO[C@@H]1C[C@H]2O` (stereo partly drawn) [Compound (I), 13-(N-Boc-β-isobutylserinyl)-14β-hydroxybaccatine V, 1,14 carbonate], in data set [1], the “cytotoxic and anticancer activities” value was “remarkable cytotoxic and anticancer activities”. The “overcoming the resistance of cell lines expressing the MDR phenotype” value in data set [2] is “capable of overcoming the resistance”.

(Values after patent publication USRE40901E1, “Taxane derivatives and processes for the preparation thereof” (Indena S.p.A., priority 1999, dated 2009).)
